Results reported in patent publication US20210353579A1, “HIGH PENETRATION COMPOSITIONS AND USES THEREOF” (Techfields Pharma Co., Ltd., priority 2006, published 2021).
Like-named read-outs stand apart in the source and are kept apart here.

Legend:
[1] = Plasma levels after transdermal administration to hairless mice; type: in vivo; settings: for Peak plasma concentration of parent compound after prodrug compound / t, time to peak plasma level of parent compound after prodrug compound: transdermal, 20% in 1 mL isopropanol
Procedure: Tested compounds (20% solution or suspension in 1 mL isopropanol) are administered transdermally to the skin of intact hairless mice. The plasma levels of the parent compounds are determined by HPLC.

[2] = as above; settings: mouse, in vivo, po
[3] = test system: human skin tissue; settings: pH 7.4
[4] = in vivo; settings: rat
Procedure: (§1) The acute toxicity of the prodrug compounds and parent compounds are measured by LD50 of rat.

[5] = test system: human skin tissue; test: In vitro penetration rate through human skin, modified Franz cells; settings: Franz cell; for In vitro penetration rate (apparent flux), prodrug compounds: 20% solution in 0.2 M phosphate buffer pH 7.4, human skin
[6] = test system: mice; test: Analgesic activity, acetic acid writhing; type: in vivo; settings: 100 mg/kg transdermally, 30 min before acetic acid
Procedure: The prodrug compounds are administered either transdermally or orally. The parent compounds are administered orally. The number of writhing that occurred when mice are administered the acetic acid solution are counted, and the rate of inhibition based on the control group which was not pretreated with any test compounds is calculated. […] The A group is the control group.

[7] = test system: Human breast cancer cells (BCAP-37); test: Human breast cancer xenograft in nude mice, topical
Procedure: Human breast cancer cells (BCAP-37, 2-3 mm^3 of tumor tissue was used in each mouse) are subcutaneously xenografted into the front leg of nude mice (BALB, 12 groups, 7 mice each group). […] Then 30 μl of 5% (equal to 1.5 mg of the HPPs) diethylaminoethyl acetylsalicylate.acetylsalicylic acid salt (P-1, in acetone); 1-piperidinepropyl 2[(2,6-dichlorophenyl)amino]benzene acetate.AcOH (P-2, in water), 1-pyrrolidinepropyl 2-(3-benzoylphenyl) propionate.AcOH (P-3, in water), 4-piperidinemethyl 2-(3-phenoxyphenyl)propionate.AcOH (P-4, in water), 3-piperidinemethyl 2-(ρ-isobutylphenyl) propionate.AcOH (P-5, in water), diethylaminoethyl 1-(p-chlorobenzoyl)-5-methoxy-2-methylindole 3-acetate.AcOH (P-11, in water), 2-(4-morpholinyl)ethyl (Z)-5-fluoro-2-methyl-1-[(4-methylsulfinyl) phenylmethylene]-1H-indene-3-acetate.AcOH (P-12, in water), diethylaminoethyl

[8] = Solubility in water / aqueous solubility of HPPs and parent drugs; settings: medium not given
[9] = test system: rat
Procedure: as §1

[10] = test system: rats; test: Antipyretic activity, E. coli suspension as pyrogen; type: in vivo; settings: 100 mg/kg transdermally; in °C (unit assumed)
Procedure: Rats are administered with sterilized E. coli suspension as a pyrogen. Each group of rats are administered with a prodrug compounds or parent compounds at a dosage specified below. The prodrug compounds are administered either orally or transdermally. The parent compounds are administered orally.

[11] = test system: Chinese white rabbits; test: Malassezia-induced lesions similar to psoriasis; type: in vivo, rabbit; settings: 5% aqueous solution twice per day, 10 days after application
From the text: Heavy suspensions of Malassezia [Rosenberg, E. W., et al., Mycopathologia, 72, 147-154 (1980)] were applied to the shaved skin on the backs of the Chinese white rabbits (n=4×6) twice (at 7 am and 7 pm) per day for 2 weeks, lesions similar to psoriasis resulted.

[12] = test system: Human colon cancer cells (LS174J); test: Human colon cancer xenograft in nude mice, topical; settings: day 30, about 30 μl of 5% solution (1.5 mg) topically applied
From the text: Human colon cancer cells (LS174J, 2-3 mm^3 of tumor tissue was used in each mouse) are subcutaneously xenografted into the front leg of nude mice (BALB).
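Wherever LD50 is given: acute toxicity in rats expressed as LD50, determined for both prodrugs and their parent compounds.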
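Wherever LD50 of HPP is given: acute toxicity in rats expressed as LD50, determined for both prodrugs and their parent compounds.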

Peak plasma concentration after parent compound ([1]; mouse, in vivo) | t, time to peak plasma level after parent compound [2] | In vitro penetration rate (apparent flux), parent compounds [3] | SMILES | % (rate of writhing inhibition) [6] | No. of Writhing [6] | Peak plasma concentration of parent compound after prodrug compound ([1]; hairless mice) | t, time to peak plasma level of parent compound after prodrug compound ([1]; hairless mice) | In vitro penetration rate (apparent flux), prodrug compounds [5] | body temperature, t = 0 min [10] | body temperature, t = 90 min [10] | body temperature, t = 180 min [10] | body temperature, t = 270 min [10] | other results
0.1 mg/L | 1 to 2 h | 10 μg/cm^2/h | Nc1c(CC(=O)O)cccc1C(=O)c1ccc(Br)cc1 [Bromofenac, bromofenac] |  |  |  |  |  |  |  |  |  | 
10 mg/L | 2 to 4 h | 30 μg/cm^2/h | O=C(O)CC(O)c1ccc(-c2ccc(Cl)cc2)o1 (stereo not drawn) [Orpanoxin, orpanoxin] |  |  |  |  |  |  |  |  |  | 
0.1 mg/L | 2 to 4 h | <1 μg/cm^2/h | CN1C(C(=O)Nc2nccs2)=C(O)c2ccccc2S1(=O)=O [Sudoxiam, sudoxiam] |  |  |  |  |  |  |  |  |  | 
 |  |  | CC1=C(CC(=O)O)c2cc(F)ccc2/C1=C\c1ccc([S+](C)[O-])cc1 (stereo not drawn) [Sulindac, sulindac, reference compound] |  |  |  |  |  |  |  |  |  | t, time to peak plasma level after parent compound ([1]; parent compound administered (time when taken orally)): 1 to 2 h; Peak plasma concentration after parent compound ([1]; parent compound administered, hairless mice): 0.1 mg/L; LD50 [4]: 260 mg/kg; In vitro penetration rate (apparent flux), parent compounds ([5]; 20% suspension in 0.2 M phosphate buffer pH 7.4, human skin, detection limit 1): 10 μg/cm^2/h
 |  |  | CC(=O)O.CCN(CC)CCOC(=O)Cc1c(C)n(C(=O)c2ccc(Cl)cc2)c2ccc(OC)cc12 [diethylaminoethyl 1-(p-chlorobenzoyl)-5-methoxy-2-methylindole 3-acetate.AcOH] | 55% | 15.6 | 20 mg/L | 50 min | 1100 μg/cm^2/h | 37.35 ± 0.06 | 36.91 ± 0.05 | 36.85 ± 0.08 | 36.79 ± 0.07 | Tumor size ([7]; day 42, 30 μl of 5% (1.5 mg) topically every 8 hours from day 14, control 800 ± 100): 210 ± 100 mm^3; Mouse weight ([7]; mouse, in vivo): 21 ± 2 g; Solubility of HPP [8]: >250 mg/mL; LD50 of HPP ([9]; rats): 100 mg/kg
 |  |  | CC(=O)O.CCN(CC)CCOC(=O)Cc1ccc(C(=O)c2ccc(C)cc2)n1C [diethylaminoethyl 1-methyl-5-(4-methylbenzoyl)-1H-pyrrole-2-acetate.AcOH] | 51% | 17.1 | 20 mg/L | 50 min | 1000 μg/cm^2/h | 37.27 ± 0.06 | 36.71 ± 0.05 | 36.65 ± 0.08 | 36.59 ± 0.07 | lesions similar to psoriasis [11]: the lesions were resolved; LD50 of HPP ([9]; rat, in vivo): 600 mg/kg; Mouse weight [12]: 21 ± 2 g; Tumor size [12]: 610 ± 200 mm^3
